{"source": "ChEMBL document CHEMBL5108065", "about": "(J Med Chem, 2022)", "key": {"[1]": {"experiment": "Clearance in Sprague-Dawley rat blood at 1 mg/kg, iv measured at 2 to 72 hrs by LC-MS/MS analysis", "type": "ADME, organism-based", "conditions": "whole blood, time 2-72 hrs"}, "[2]": {"experiment": "Cardiotoxicity in anesthetized guinea-pig assessed as QRS widening at 90 nM", "type": "toxicity, Cavia porcellus", "conditions": "0.09 µM"}, "NIH3T3": {"test_system": "NIH3T3", "experiment": "Phototoxicity against mouse 3T3 cells by neutral red uptake assay", "type": "toxicity, cell-based"}, "Plasmodium falciparum [3]": {"test_system": "Plasmodium falciparum", "experiment": "Antimalarial activity against Plasmodium falciparum PH1263-C harbouring Pf-crt mutated loci assessed as inhibition of parasite growth pretreated for 48 hrs followed by [3H]-hypoxanthine addition measured after 24 hrs by scintillation counting method", "type": "functional, organism-based"}, "Plasmodium falciparum [4]": {"test_system": "Plasmodium falciparum", "experiment": "Antimalarial activity against Plasmodium falciparum Dd2048 harbouring pfpi4k mutated loci assessed as inhibition of parasite growth pretreated for 48 hrs followed by [3H]-hypoxanthine addition measured after 24 hrs by scintillation counting method", "type": "functional, organism-based"}, "[5]": {"experiment": "Intrinsic clearance in rat hepatocytes measured per 10^6 cells", "type": "ADME, cell-based, Hepatocyte"}, "Plasmodium falciparum [6]": {"test_system": "Plasmodium falciparum", "experiment": "Antimalarial activity against Plasmodium falciparum TM90C2b harbouring Pf-crt, Pf-mdrl,Pfd-hfr, Pf-cytbQ0 mutated loci assessed as inhibition of parasite growth pretreated for 48 hrs followed by [3H]-hypoxanthine addition measured after 24 hrs by scintillation counting method", "type": "functional, organism-based"}, "[7]": {"experiment": "Cardiotoxicity in anesthetized guinea-pig assessed as QRS widening at 1600 nM", "type": "toxicity, Cavia porcellus", "conditions": "1.6 µM"}, "[8]": {"experiment": "Cardiotoxicity in anesthetized guinea-pig assessed as cardiac contractility", "type": "toxicity, Cavia porcellus", "conditions": "0.09 µM, DDE = dose-dependent effect, dose 90 nM"}, "[9]": {"experiment": "Cardiotoxicity in anesthetized guinea-pig assessed as decrease in heart rate", "type": "toxicity, Cavia porcellus", "conditions": "0.09 µM, DDE = dose-dependent effect, dose 90 nM"}, "Plasmodium falciparum [10]": {"test_system": "Plasmodium falciparum", "experiment": "Antiplasmodial activity against sensitive Plasmodium falciparum NF54 infected in human red blood cells assessed as reduction in [3H]-hypoxanthine incorporation pretreated for 48 hrs followed by [3H]-hypoxanthine addition measured after 24 hrs by scintillation counting method", "type": "functional, organism-based"}, "[11]": {"experiment": "Toxicity in Han Wistar rat assessed as effect on photopic amplitude at 1000 mg/kg, po administered every other day for 7 days by ERG analysis", "type": "organism-based", "conditions": "in vivo, 168 h, time 7 day"}, "[12]": {"experiment": "Cmax in Han Wistar rat at 1000 mg/kg, po administered every other day for 7 days", "type": "ADME, organism-based", "set-up": "dose 1000 mg/kg, time 7 day, route po", "conditions": "in vivo"}, "[13]": {"experiment": "Phototoxicity assessed as minimum extinction coefficient of the compound", "type": "toxicity"}, "[14]": {"experiment": "Toxicity in Han Wistar rat assessed as effect on implicit times and latency at 1000 mg/kg, po administered every other day for 7 days by ERG analysis", "type": "organism-based", "conditions": "in vivo, 168 h, time 7 day"}, "[15]": {"target": "Plasmepsin X (Plasmodium falciparum (isolate 3D7)) (UniProt Q8IAS0)", "sequence (Q8IAS0 whole entry)": "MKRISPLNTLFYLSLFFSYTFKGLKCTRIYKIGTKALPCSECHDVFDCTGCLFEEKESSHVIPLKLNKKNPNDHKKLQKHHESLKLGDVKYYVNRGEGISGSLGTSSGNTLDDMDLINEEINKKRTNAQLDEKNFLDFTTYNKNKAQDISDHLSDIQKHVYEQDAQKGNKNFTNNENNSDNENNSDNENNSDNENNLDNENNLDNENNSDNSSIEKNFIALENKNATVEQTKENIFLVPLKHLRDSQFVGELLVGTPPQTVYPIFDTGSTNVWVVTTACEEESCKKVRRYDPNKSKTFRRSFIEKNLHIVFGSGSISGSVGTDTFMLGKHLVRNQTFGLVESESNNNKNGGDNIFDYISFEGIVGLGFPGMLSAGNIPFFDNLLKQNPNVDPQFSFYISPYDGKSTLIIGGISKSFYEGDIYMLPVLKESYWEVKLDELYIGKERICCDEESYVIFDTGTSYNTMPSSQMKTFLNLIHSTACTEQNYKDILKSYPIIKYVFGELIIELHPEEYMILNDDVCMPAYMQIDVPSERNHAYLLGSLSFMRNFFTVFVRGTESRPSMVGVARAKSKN", "conditions": "Expi293F GnTI-", "description": "Inhibition of Plasmodium falciparum recombinant C-terminal TEV cleavable 8his-tagged PMX by FRET assay"}, "Homo sapiens": {"organism": "Homo sapiens", "experiment": "Inhibition of BACE (unknown origin) at 10 uM relative to control"}, "Plasmodium falciparum [16]": {"test_system": "Plasmodium falciparum", "experiment": "Antimalarial activity against DSM265 resistant Plasmodium falciparum Dd2 harbouring pf-dhodh mutated loci assessed as inhibition of parasite growth pretreated for 48 hrs followed by [3H]-hypoxanthine addition measured after 24 hrs by scintillation counting method", "type": "functional, organism-based"}, "[17]": {"experiment": "AUC in Han Wistar rat at 1000 mg/kg, po administered every other day for 7 days", "type": "ADME, organism-based", "set-up": "dose 1000 mg/kg, time 7 day, route po", "conditions": "in vivo, 168 h"}, "[18]": {"experiment": "Clearance in Cynomolgus monkey blood at 1 mg/kg, iv measured at 2 to 72 hrs by LC-MS/MS analysis", "type": "ADME, organism-based, Macaca fascicularis", "conditions": "whole blood, time 2-72 hrs"}, "[19]": {"experiment": "fCmax in Han Wistar rat at 1000 mg/kg, po administered every other day for 7 days", "type": "ADME, organism-based", "conditions": "in vivo, 168 h, time 7 day"}, "[20]": {"experiment": "Toxicity in Han Wistar rat assessed as auto-fluorescent granule accumulation in retinal epithelium at 250 to 1000 mg/kg, po administered every other day for 7 days", "type": "organism-based", "conditions": "in vivo, 168 h, dose 250-1000 mg/kg, time 7 day"}, "Plasmodium falciparum [21]": {"test_system": "Plasmodium falciparum", "experiment": "Antimalarial activity against Plasmodium falciparum 7G8 harbouring Pf-crt, Pf-mdrl,Pf-dhfr, Pf-dhps mutated loci assessed as inhibition of parasite growth pretreated for 48 hrs followed by [3H]-hypoxanthine addition measured after 24 hrs by scintillation counting method", "type": "functional, organism-based"}, "Plasmodium falciparum [22]": {"test_system": "Plasmodium falciparum", "experiment": "Antimalarial activity against Plasmodium falciparum K1 harbouring Pf-crt, Pf-mdrl,Pf-dhfr, Pf-dhps mutated loci assessed as inhibition of parasite growth pretreated for 48 hrs followed by [3H]-hypoxanthine addition measured after 24 hrs by scintillation counting method", "type": "functional, organism-based"}, "[23]": {"experiment": "Oral bioavailability in Cynomolgus monkey blood at 10 mg/kg measured at 2 to 72 hrs by LC-MS/MS analysis", "type": "ADME, organism-based, Macaca fascicularis", "conditions": "time 2-72 hrs"}, "Plasmodium falciparum [24]": {"test_system": "Plasmodium falciparum", "experiment": "Antimalarial activity against Plasmodium falciparum infected NSG mouse model assessed as accumulation of circulating mature schizonts measured after 2 cycles of drug exposure at 60 mg/kg, po bid administered daily for 3 days", "type": "functional, organism-based", "conditions": "time 3.0 day"}, "Plasmodium falciparum [25]": {"test_system": "Plasmodium falciparum", "experiment": "Antimalarial activity against DDD107498 resistant Plasmodium falciparum Dd2 harbouring pfeef2 mutated loci assessed as inhibition of parasite growth pretreated for 48 hrs followed by [3H]-hypoxanthine addition measured after 24 hrs by scintillation counting method", "type": "functional, organism-based"}, "[26]": {"experiment": "Lipophilicity, logD of compound at pH 7.4", "type": "physicochemical", "conditions": "buffer"}, "[27]": {"experiment": "Solubility of the compound in FeSSIF at pH 5.8", "type": "physicochemical", "conditions": "simulated gi fluid"}, "[28]": {"experiment": "Lipophilicity, log D of the compound", "type": "physicochemical", "conditions": "octanol/water"}, "[29]": {"experiment": "Drug metabolism in rat hepatocytes assessed as (S)-6-(2-chloro-3-((6-cyclopropylpyridin-3-yl)amino)phenyl)-2-imino-6-methyl-3-((2S,4S)-2-methyltetrahydro-2H-pyran-4-yl)tetrahydropyrimidin-4(1H)-one metabolite formation", "type": "ADME, cell-based, Hepatocyte"}, "Plasmodium falciparum [30]": {"test_system": "Plasmodium falciparum", "experiment": "Antimalarial activity against blood stage Plasmodium infected in NSG mouse model assessed as parasite recrudescence by measuring parasitemia at 50 mg/kg, po measured 96 hrs by flow cytometry", "type": "functional, organism-based"}, "HepG2": {"test_system": "HepG2", "experiment": "Cytotoxicity against human HepG2 cells assessed reduction in cell viability", "type": "toxicity, cell-based"}, "[31]": {"target": "Potassium voltage-gated channel subfamily A member 5 (Homo sapiens, UniProt P22460)", "sequence (P22460 whole entry)": "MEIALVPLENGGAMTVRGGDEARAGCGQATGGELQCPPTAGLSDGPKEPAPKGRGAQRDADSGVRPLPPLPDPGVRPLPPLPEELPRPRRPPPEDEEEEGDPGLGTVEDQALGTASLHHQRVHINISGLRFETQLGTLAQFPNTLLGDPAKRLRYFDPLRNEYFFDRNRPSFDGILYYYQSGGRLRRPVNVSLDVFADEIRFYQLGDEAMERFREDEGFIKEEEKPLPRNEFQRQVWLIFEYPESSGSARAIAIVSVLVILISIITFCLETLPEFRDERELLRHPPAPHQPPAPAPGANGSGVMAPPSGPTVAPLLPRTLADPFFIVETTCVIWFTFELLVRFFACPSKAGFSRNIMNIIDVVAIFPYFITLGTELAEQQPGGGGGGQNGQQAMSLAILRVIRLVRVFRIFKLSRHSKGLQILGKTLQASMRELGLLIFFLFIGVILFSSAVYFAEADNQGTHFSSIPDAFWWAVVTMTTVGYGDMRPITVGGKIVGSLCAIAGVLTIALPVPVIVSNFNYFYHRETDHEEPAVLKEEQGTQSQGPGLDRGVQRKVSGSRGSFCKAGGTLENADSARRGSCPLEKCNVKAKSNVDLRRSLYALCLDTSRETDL", "experiment": "Inhibition of Kv1.5 (unknown origin) by patch clamp method", "type": "toxicity"}, "[32]": {"experiment": "Drug metabolism in human hepatocytes assessed as (S)-6-(2-chloro-3-((6-cyclopropylpyridin-3-yl)amino)phenyl)-2-imino-6-methyl-3-((2S,4S)-2-methyltetrahydro-2H-pyran-4-yl)tetrahydropyrimidin-4(1H)-one metabolite formation", "type": "ADME, cell-based, Hepatocyte"}, "[33]": {"experiment": "Drug metabolism in rat hepatocytes assessed as (S)-6-(2-chloro-3-((6-cyclopropylpyridin-3-yl)amino)phenyl)-2-imino-6-methyltetrahydropyrimidin-4(1H)-one metabolite formation", "type": "ADME, cell-based, Hepatocyte"}, "[34]": {"experiment": "Drug metabolism in dog hepatocytes assessed as (S)-6-(2-chloro-3-((6-cyclopropylpyridin-3-yl)amino)phenyl)-2-imino-6-methyl-3-((2S,4S)-2-methyltetrahydro-2H-pyran-4-yl)tetrahydropyrimidin-4(1H)-one metabolite formation", "type": "ADME, cell-based, Canis lupus familiaris, Hepatocyte"}, "[35]": {"target": "Voltage-gated inwardly rectifying potassium channel KCNH2 (Homo sapiens, UniProt Q12809)", "sequence (Q12809 whole entry)": "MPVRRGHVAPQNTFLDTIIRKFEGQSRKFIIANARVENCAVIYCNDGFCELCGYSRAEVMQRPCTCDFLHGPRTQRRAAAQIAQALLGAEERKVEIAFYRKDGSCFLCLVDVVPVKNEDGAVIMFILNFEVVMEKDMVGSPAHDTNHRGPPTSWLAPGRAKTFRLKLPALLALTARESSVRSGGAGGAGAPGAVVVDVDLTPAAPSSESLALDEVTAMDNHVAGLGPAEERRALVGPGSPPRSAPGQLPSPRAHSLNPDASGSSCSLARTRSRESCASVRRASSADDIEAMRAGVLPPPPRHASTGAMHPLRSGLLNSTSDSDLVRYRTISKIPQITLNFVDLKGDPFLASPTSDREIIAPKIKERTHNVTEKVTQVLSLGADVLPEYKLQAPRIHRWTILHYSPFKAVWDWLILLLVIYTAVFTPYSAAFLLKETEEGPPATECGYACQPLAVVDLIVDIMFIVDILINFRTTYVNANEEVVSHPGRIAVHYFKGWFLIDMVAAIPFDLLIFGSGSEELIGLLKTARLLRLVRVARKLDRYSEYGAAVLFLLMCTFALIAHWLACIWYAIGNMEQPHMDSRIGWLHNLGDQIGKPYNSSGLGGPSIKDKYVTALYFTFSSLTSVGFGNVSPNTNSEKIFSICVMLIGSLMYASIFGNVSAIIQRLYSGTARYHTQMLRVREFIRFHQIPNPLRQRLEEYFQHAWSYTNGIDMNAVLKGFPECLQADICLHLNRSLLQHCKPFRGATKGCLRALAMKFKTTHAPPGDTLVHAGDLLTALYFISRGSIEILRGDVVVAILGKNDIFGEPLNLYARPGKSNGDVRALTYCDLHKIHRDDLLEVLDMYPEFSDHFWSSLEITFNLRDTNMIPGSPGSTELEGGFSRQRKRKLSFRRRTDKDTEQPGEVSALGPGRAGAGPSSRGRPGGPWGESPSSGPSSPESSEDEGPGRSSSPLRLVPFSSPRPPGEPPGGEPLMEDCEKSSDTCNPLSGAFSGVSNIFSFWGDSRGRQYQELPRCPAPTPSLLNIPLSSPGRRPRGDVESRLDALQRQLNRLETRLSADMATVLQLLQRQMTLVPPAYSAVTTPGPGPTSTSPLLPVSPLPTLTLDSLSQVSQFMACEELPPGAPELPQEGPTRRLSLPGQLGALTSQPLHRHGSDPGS", "experiment": "Inhibition of hERG cardiac ion channel by patch clamp assay", "type": "toxicity"}, "Plasmodium berghei": {"test_system": "Plasmodium berghei", "experiment": "Antimalarial activity against luciferase expressing Plasmodium berghei sporozoites infected in naive C57B/6 liver mouse model assessed as decrease in liver infection at 50 mg/kg, po administered twice daily on day 8 by Giemsa staining based microscopic analysis", "type": "functional, organism-based", "conditions": "time 8.0 day"}, "[36]": {"experiment": "AUClast in NSG mouse at 50 mg/kg, po by LC-MS/MS analysis", "type": "ADME, organism-based", "set-up": "time 0 - last, dose 50 mg/kg, route po", "conditions": "in vivo"}}, "note": "Activity calls are given as the source filed them. The rule behind the calls is not given here."}
{"smiles": "C[C@H]1C[C@@H](N2C(=N)N[C@](C)(c3cccc(NC(=O)c4cccc(C#N)c4)c3Cl)CC2=O)CCO1", "values": [{"measurement": "clearance", "setting": "[1]", "value": 43.9, "unit": "mL/min/kg"}, {"measurement": "Activity", "setting": "[2]", "value": "Non-Toxic"}, {"measurement": "Activity", "setting": "NIH3T3", "value": "Non-Toxic"}, {"measurement": "IC50", "setting": "Plasmodium falciparum [3]", "value": 18, "unit": "nM"}, {"measurement": "IC50", "setting": "Plasmodium falciparum [4]", "value": 20, "unit": "nM"}, {"measurement": "CLH", "setting": "[5]", "value": 66, "unit": "µL/min"}, {"measurement": "IC50", "setting": "Plasmodium falciparum [6]", "value": 15, "unit": "nM"}, {"measurement": "Activity", "setting": "[7]", "value": "Non-Toxic"}, {"measurement": "Activity", "setting": "[8]", "value": "Dde"}, {"measurement": "Activity", "setting": "[9]", "value": "Dde"}, {"measurement": "IC50", "setting": "Plasmodium falciparum [10]", "value": 34.6, "unit": "nM"}, {"measurement": "Activity", "setting": "[11]", "value": "Non-Toxic"}, {"measurement": "Cmax", "setting": "[12]", "value": 25000, "unit": "ng/mL"}, {"measurement": "Activity", "setting": "[13]", "value": 2336, "unit": "a.u.L/mol.cm"}, {"measurement": "Activity", "setting": "[14]", "value": "Non-Toxic"}, {"measurement": "IC90", "setting": "[15]", "value": 52, "unit": "nM"}, {"measurement": "inhibition", "setting": "Homo sapiens", "value": 64, "unit": "%"}, {"measurement": "IC50", "setting": "Plasmodium falciparum [16]", "value": 22, "unit": "nM"}, {"measurement": "AUC", "setting": "[17]", "value": 2182, "unit": "µM·h"}, {"measurement": "clearance", "setting": "[18]", "value": 18.9, "unit": "mL/min/kg"}, {"measurement": "fCmax", "setting": "[19]", "value": 11, "unit": "µM"}, {"measurement": "Activity", "setting": "[20]", "value": "Non-Toxic"}, {"measurement": "IC50", "setting": "Plasmodium falciparum [21]", "value": 24, "unit": "nM"}, {"measurement": "IC50", "setting": "Plasmodium falciparum [22]", "value": 33, "unit": "nM"}, {"measurement": "bioavailability", "setting": "[23]", "value": 39, "unit": "%"}, {"measurement": "Activity", "setting": "Plasmodium falciparum [24]", "value": "Active"}, {"measurement": "IC50", "setting": "Plasmodium falciparum [25]", "value": 22, "unit": "nM"}]}
{"smiles": "C[C@H]1C[C@@H](N2C(=N)N[C@](C)(c3cccc(Nc4ccc(C5CC5)nc4)c3Cl)CC2=O)CCO1", "values": [{"measurement": "logD", "setting": "[26]", "value": 2.5}, {"measurement": "solubility", "setting": "[27]", "value": 959, "unit": "µM"}, {"measurement": "logD", "setting": "[28]", "value": 2.5}, {"measurement": "Drug metabolism", "setting": "[29]", "value": "Metabolite_Detected"}, {"measurement": "Activity", "setting": "Plasmodium falciparum [30]", "value": "Active"}, {"measurement": "IC50", "setting": "HepG2", "value": 16, "unit": "µM"}, {"measurement": "IC50", "setting": "[31]", "value": 5, "unit": "µM"}, {"measurement": "Drug metabolism", "setting": "[32]", "value": "Metabolite_Detected"}, {"measurement": "Drug metabolism", "setting": "[33]", "value": "Metabolite_Detected"}, {"measurement": "Drug metabolism", "setting": "[34]", "value": "Metabolite_Detected"}, {"measurement": "IC50", "setting": "[35]", "value": 14, "unit": "µM"}, {"measurement": "Activity", "setting": "Plasmodium berghei", "value": "Active"}, {"measurement": "AUC", "setting": "[36]", "value": "2 10^6nM"}]}
